≈ marks a conversion by molar mass, not a printed value. Non-standard residues stand in square brackets, D forms with d. Residues, ends and D or L forms follow the SMILES beside them.
Tests used:
[1] = test system: K. pneumoniae 3026; format: cell-based, Klebsiella pneumoniae
From the text: (§1) Bacteria were cultivated in Luria-Bertani (LB) broth.

[2] = test system: K. pneumoniae ATCC 700603; format: cell-based, Klebsiella pneumoniae
From the text: as §1

[3] = test system: E. coli S; format: cell-based, Escherichia coli
From the text: as §1

[4] = test system: E. coli ATCC 25922; format: cell-based, Escherichia coli
From the text: as §1

[5] = test system: MRSA 3393; format: cell-based, Staphylococcus aureus; conditions: 3393
From the text: as §1

[6] = test system: MRSA ATCC 43300; format: cell-based, Staphylococcus aureus; conditions: ATCC 43300
From the text: as §1

[7] = test system: MRSA USA 300; format: cell-based, Staphylococcus aureus
From the text: as §1

[8] = test system: A. baumannii 1318; format: cell-based, Acinetobacter baumannii
From the text: as §1

[9] = test system: A. baumannii 1337; format: cell-based, Acinetobacter baumannii
From the text: as §1

Structure (SMILES)	MIC Gram- K. p 3026 [1] [µM]	MIC Gram- K. p ATCC 700603 [2] [µM]	MIC Gram- E. coli S [3] [µM]	MIC Gram- E. coli ATCC 25922 [4] [µM]	MIC Gram+ MRSA 3393 [5] [µM]	MIC Gram+ MRSA ATCC 43300 [6] [µM]	MIC Gram+ MRSA USA 300 [7] [µM]	MIC Gram- A. b 1318 [8] [µM]	MIC Gram- A. b 1337 [9] [µM]
CC[C@H](C)[C@H](NC(=O)[C@H](CCCNC(=N)N)NC(=O)[C@H](CO)NC(=O)[C@H](CC(C)C)NC(=O)[C@@H](N)Cc1ccccc1)C(=O)N[C@@H](Cc1ccccc1)C(N)=O [SHfΔ2F] (H-FLSRIF-NH2; N-terminus assumed)	> 100	> 100	> 100	> 100	> 100	> 100	> 100	> 100	> 100
CC[C@H](C)[C@H](NC(=O)[C@H](CCCNC(=N)N)NC(=O)[C@H](CO)NC(=O)[C@H](CC(C)C)NC(=O)[C@H](Cc1ccccc1)NC(=O)[C@H](Cc1ccccc1)NC(=O)[C@@H](N)Cc1ccc(O)cc1)C(=O)N[C@@H](Cc1ccccc1)C(N)=O [SHf(Y^1)] (H-YFFLSRIF-NH2; N-terminus assumed)	> 100	> 100	> 100	> 100		> 100		> 100	> 100
CC[C@H](C)[C@H](NC(=O)[C@H](CCCNC(=N)N)NC(=O)[C@H](CO)NC(=O)[C@H](CC(C)C)NC(=O)[C@H](Cc1ccccc1)NC(=O)[C@H](Cc1ccccc1)NC(=O)[C@H](Cc1ccc(O)cc1)NC(=O)[C@@H](N)Cc1ccc(O)cc1)C(=O)N[C@@H](Cc1ccccc1)C(N)=O [Y-SHf(Y^1)] (H-YYFFLSRIF-NH2; N-terminus assumed)	> 100	> 100	> 100	> 100				> 100	> 100

Further lines, results first:

MIC Gram- K. p 3026 [1] [µM]	MIC Gram- K. p ATCC 700603 [2] [µM]	MIC Gram- E. coli S [3] [µM]	MIC Gram- E. coli ATCC 25922 [4] [µM]	MIC Gram+ MRSA 3393 [5] [µM]	MIC Gram+ MRSA ATCC 43300 [6] [µM]	MIC Gram+ MRSA USA 300 [7] [µM]	MIC Gram- A. b 1318 [8] [µM]	MIC Gram- A. b 1337 [9] [µM]	Structure (SMILES)
> 100	> 100	25 (≈ 32.3 µg/mL)	> 100	3.13 (≈ 4.04 µg/mL)	3.13 (≈ 4.04 µg/mL)	3.13 (≈ 4.04 µg/mL)	25 (≈ 32.3 µg/mL)	25 (≈ 32.3 µg/mL)	CC[C@H](C)[C@H](NC(=O)[C@@H](CCCNC(=N)N)NC(=O)[C@H](CCCNC(=N)N)NC(=O)[C@H](CC(C)C)NC(=O)[C@H](Cc1ccccc1)NC(=O)[C@H](Cc1ccccc1)NC(=O)[C@H](Cc1ccccc1)NC(=O)[C@@H](N)Cc1ccccc1)C(=O)N[C@@H](Cc1ccccc1)C(N)=O [F-SHf(R^5,dR^6)] (H-FFFFLR[dR]IF-NH2; N-terminus assumed)
> 100	> 100	> 100	50 (≈ 65.4 µg/mL)	3.13 (≈ 4.09 µg/mL)	3.13 (≈ 4.09 µg/mL)	6.25 (≈ 8.17 µg/mL)	> 100	50 (≈ 65.4 µg/mL)	CC[C@H](C)[C@H](NC(=O)[C@H](CCCNC(=N)N)NC(=O)[C@H](CCCNC(=N)N)NC(=O)[C@H](CC(C)C)NC(=O)[C@H](Cc1ccccc1)NC(=O)[C@H](Cc1ccccc1)NC(=O)[C@H](Cc1ccccc1)NC(=O)[C@@H](N)Cc1ccc(O)cc1)C(=O)N[C@@H](Cc1ccccc1)C(N)=O [Y-SHf(R^5)] (H-YFFFLRRIF-NH2; N-terminus assumed)
25 (≈ 32.3 µg/mL)	25 (≈ 32.3 µg/mL)	6.25 (≈ 8.07 µg/mL)	> 100	3.13 (≈ 4.04 µg/mL)	3.13 (≈ 4.04 µg/mL)	3.13 (≈ 4.04 µg/mL)	12.5 (≈ 16.1 µg/mL)	25 (≈ 32.3 µg/mL)	CC[C@H](C)[C@H](NC(=O)[C@@H](CCCNC(=N)N)NC(=O)[C@@H](CCCNC(=N)N)NC(=O)[C@H](CC(C)C)NC(=O)[C@H](Cc1ccccc1)NC(=O)[C@H](Cc1ccccc1)NC(=O)[C@H](Cc1ccccc1)NC(=O)[C@@H](N)Cc1ccccc1)C(=O)N[C@@H](Cc1ccccc1)C(N)=O [F-SHf(dR^5, 6)] (H-FFFFL[dR][dR]IF-NH2; N-terminus assumed)

— publication PMC10657444, “Design and evaluation of tadpole-like conformational antimicrobial peptides” (Communications Biology, 2023)
